Experiment [1] has as its target 5-hydroxytryptamine receptor 7 (Homo sapiens, UniProt P34969). The experiment in a line: Radioligand Binding Assay. Particulars: 25 °C.
Experiment [2] deals with T1, 5-hydroxytryptamine receptor 1A (Homo sapiens, UniProt P08908).
T1 sequence (P08908 whole entry): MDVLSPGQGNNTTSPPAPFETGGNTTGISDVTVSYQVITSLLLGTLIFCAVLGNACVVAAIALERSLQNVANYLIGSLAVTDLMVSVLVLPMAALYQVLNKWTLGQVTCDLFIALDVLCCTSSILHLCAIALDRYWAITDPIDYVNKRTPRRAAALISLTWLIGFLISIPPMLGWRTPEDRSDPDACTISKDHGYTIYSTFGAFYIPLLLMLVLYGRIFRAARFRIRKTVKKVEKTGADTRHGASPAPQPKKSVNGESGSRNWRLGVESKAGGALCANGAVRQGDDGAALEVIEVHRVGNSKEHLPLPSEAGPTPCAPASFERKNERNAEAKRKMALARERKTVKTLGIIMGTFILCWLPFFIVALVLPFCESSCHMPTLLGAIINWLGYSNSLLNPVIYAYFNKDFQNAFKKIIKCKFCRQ
Description: Radioligand Binding Assay. Particulars: 25 °C. The procedure: All assays were incubated in a total volume of […] in 96-well microtiter plates for 1 h at 37 °C, except for 5-HT1ARs which were incubated at room temperature for 1 h. The process of equilibration was terminated by rapidfiltration through Unifilter plates with a 96-well cell harvester and radioactivity retained on the filters was quantified on a Microbeta plate reader.

Structures are written as SMILES.

What is called Ki is the equilibrium dissociation constant of an inhibitor or competing ligand from its target. A high value points to lower affinity.

5-hydroxytryptamine receptor 7, sequence (P34969 whole entry): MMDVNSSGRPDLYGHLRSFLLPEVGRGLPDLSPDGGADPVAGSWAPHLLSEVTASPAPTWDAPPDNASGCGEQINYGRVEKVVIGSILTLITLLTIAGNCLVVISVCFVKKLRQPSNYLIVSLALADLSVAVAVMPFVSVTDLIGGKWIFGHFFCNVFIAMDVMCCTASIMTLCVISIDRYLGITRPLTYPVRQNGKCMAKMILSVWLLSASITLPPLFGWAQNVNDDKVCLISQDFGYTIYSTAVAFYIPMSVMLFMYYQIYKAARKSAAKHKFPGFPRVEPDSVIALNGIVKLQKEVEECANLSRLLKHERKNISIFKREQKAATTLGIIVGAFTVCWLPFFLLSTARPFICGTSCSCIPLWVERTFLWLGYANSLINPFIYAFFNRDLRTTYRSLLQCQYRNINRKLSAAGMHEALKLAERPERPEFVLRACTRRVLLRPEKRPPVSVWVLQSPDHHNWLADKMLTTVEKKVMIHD

In the case of `O=C1NN=C(c2ccccc2Cl)NC1CCCCN1CCN(c2ccccc2F)CC1` (stereo not given) [3-(2-Chlorophenyl)-5-{4-[4-(2-fluorophenyl)piperazin-1-yl]butyl}-4,5-dihydro-1,2,4-triazin-6(1H)-one (17)], the Ki stood at 91 nM in experiment [1] and 37 nM in experiment [2].
As to `O=C1NN=C(C2CCCCC2)NC1CCCCN1CCN(c2cccc(Cl)c2Cl)CC1` (stereo not given) [3-Cyclohexyl-5-{4-[4-(2,3-dichlorophenyl)piperazin-1-yl]butyl}-4,5-dihydro-1,2,4-triazin-6(1H)-one (20)], the inhibitory constant (Ki) in experiment [1] was determined as 5 nM; in experiment [2] it was 32 nM.
The corresponding values for `CSc1ccccc1N1CCN(CCCCC2NC(C3CCCCC3)=NNC2=O)CC1` (stereo not given) [3-Cyclohexyl-5-{4-[4-(2-(methylthio)phenyl)piperazin-1-yl]butyl}-4,5-dihydro-1,2,4-triazin-6(1H)-one (19)] are 6 nM and 14 nM.
Turning to `COc1ccccc1N1CCN(CCCCC2NC(C3CCCCC3)=NNC2=O)CC1` (stereo not given) [3-Cyclohexyl-5-{4-[4-(2-methoxyphenyl)piperazin-1-yl]butyl}-4,5-dihydro-1,2,4-triazin-6(1H)-one (18)], the Ki in experiment [1] came out at 20 nM; in experiment [2], 5 nM.
Take `O=C1NN=C(c2ccccc2)NC1CCCCN1CCN(c2ccccc2)CC1` (stereo not given) [3-Phenyl-5-[4-(4-phenylpiperazin-1-yl)butyl]-4,5-dihydro-1,2,4-triazin-6(1H)-one (11)]: the Ki in experiment [1] turned out to be 95 nM; in experiment [2], 79 nM.
For the compound `O=C1NN=C(c2ccccc2)NC1CCCCN1CCN(c2cccc(Cl)c2Cl)CC1` (stereo not given) [5-{4-[4-(2,3-Dichlorophenyl)piperazin-1-yl]butyl}-3-phenyl-4,5-dihydro-1,2,4-triazin-6(1H)-one (16)], the Ki in experiment [1] was 16 nM; in experiment [2], 70 nM.
The matching figures for `CSc1ccccc1N1CCN(CCCCC2NC(c3ccccc3)=NNC2=O)CC1` (stereo not given) [5-{4-[4-(2-(Methylthio)phenyl)piperazin-1-yl]butyl}-3-phenyl-4,5-dihydro-1,2,4-triazin-6(1H)-one (13)]: 17 nM and 28 nM.
Consider `O=C1NN=C(c2ccccc2)NC1CCCCN1CCN(c2ccccc2F)CC1` (stereo not given) [5-{4-[4-(2-Fluorophenyl)piperazin-1-yl]butyl}-3-phenyl-4,5-dihydro-1,2,4-triazin-6(1H)-one (14)], for which the Ki worked out at 100 nM in experiment [1] and 119 nM in experiment [2].
The corresponding values for `COc1ccccc1N1CCN(CCCCC2NC(c3ccccc3)=NNC2=O)CC1` (stereo not given) [5-{4-[4-(2-Methoxyphenyl)piperazin-1-yl]butyl}-3-phenyl-4,5-dihydro-1,2,4-triazin-6(1H)-one (12)] are 27 nM and 9 nM.
The matching figures for `O=C1NN=C(c2ccccc2)NC1CCCCN1CCN(c2ccc(Cl)cc2)CC1` (stereo not given) [5-{4-[4-(4-Chlorophenyl)piperazin-1-yl]butyl}-3-phenyl-4,5-dihydro-1,2,4-triazin-6(1H)-one (15)]: 79 nM and 698 nM.

Source of the values: BindingDB's records for doi:10.1111/cbdd.12539 (Jagiellonian University Medical College, 2015).
